Patent US11497761B2, “Compositions for the treatment of metastatic cancer” (priority 2019, dated 2022)

Test system: iCTCs from prostate cancer patients
Assay: iCTC drug response (CDR) testing ex vivo, Project 1 Study-Prostate Cancer
Type: cell-based, human
Conditions: for number of live iCTCs remaining after treatment: 72 hours
Protocol: Materials for Project 1 Study-Prostate Cancer • Blood collection tubes: BD Vacutainer® 10 mL sodium heparin tube (BD catalog #367874)). • Vita-Assay™ AN6W plate. • Blood: prostate cancer, up to 40-mL blood was collected from patients and provided by Conversant bio. • Stock Solution and Dilutions • Monolaurin, 4.78 mM with 0.75% PS-80 (Stock Solution C), 13.1 mg monolaurin in 0.25 mL PS-80 and 0.75 mL water and 0.1 mL of this solution was diluted with 0.9 mL of RPMI. Stock solutions were stable for 2 weeks at 4 degrees C. Monolaurin used is an equal mixture of 1-, 2-, and 3-isomers of monolaurin. • Dilution: Monolaurin: Add 209.2 uL, 627.6 uL, and 1.2552 mL of CPI-2400 in 0.75% PS-80 (Stock solution C) and dilute to 10 mL of media to achieve final concentrations of 100 uM, 200 uM, and 300 uM final concentrations of drug cell exposure respectively.
With respect to FIG. 1, a depiction of a generalized experimental scheme for testing efficacy of a composition in accordance with an exemplary embodiment of the present invention against iCTC from the blood of prostate cancer patients is shown. Invasive circulating tumor cells (iCTCs) were obtained from venous blood of the individual with advanced prostate cancer, cultured and exposed to a specific drug or battery of drugs at 1×, 2×, and 3× concentrations in vitro for 3 days. Drug responsiveness was measured by automatic flow cytometry using the reduction of live iCTCs in the treated samples from the number of live iCTCs in the untreated controls. The greater the reduction of iCTCs of a given drug at a given dose indicates greater responsiveness to that dose of the drug. Four AN6W plates were used for each sample. Control and drug at each dose in triplicate were incubated for 72 hours. The iCTCs were measured by flow cytometry and viewed by microscopy as described. The complete culture medium contains 10% fetal bovine serum.
The complete experimental procedure for The Project 1 Study-Prostate Cancer followed the same procedure as that used with respect to The Project 1 Study-Pancreatic Cancer. With reference to FIGS. 5 and 6, flow cytometry evaluation: Count tumor cells and immune cells by using a 4-channel (FITC, PE, APC, and 7AAD) flow cytometer. iCTC is defined as: EPI^+TP^+CD45^−[…] • FIG. 5 depicts images of solitary and clustered iCTCs with specific markers in a cytospin preparation of the RP-19 sample. […] Pink arrows indicated iCTC clusters. A tumor cell was positively stained with green fluorescence-epithelial marker (GF-Epi), blue fluorescence nucleic acid dye (BF-Hoechst) and red fluorescence tumor progenitor (TP) marker (RF-TP). White arrows indicate WBCs that were not stained by Epi and TP tumor markers. Bar=40 μm. Cells from RP-19 were cultured for 3 days before staining.

With `CCCCCCCCCCCC(=O)OCC(O)CO` (stereo not shown) [Monolaurin, glycerol monolaurate] the “kill rates of iCTCs (summary)” value (iCTCs from prostate cancer patients) was “high kill rates”, the “number of live iCTCs remaining after treatment” value (shortened to “number of live iCTCs remaining”) (patient RP02 (Taxotere), iCTC control 450, 100 uM monolaurin) was 0 and the “number of live iCTCs remaining” value (patient RP02 (Taxotere), iCTC control 450, 200 uM monolaurin) was 0. For the same compound, the “number of live iCTCs remaining” value (patient RP02 (Taxotere), iCTC control 450, 300 uM monolaurin) was 0, the “number of live iCTCs remaining” value (patient RP06 (Taxotere), iCTC control 40, 100 uM monolaurin) was 10 and the “number of live iCTCs remaining” value (patient RP06 (Taxotere), iCTC control 40, 200 uM monolaurin) was 0. For the same compound, the “number of live iCTCs remaining” value (patient RP06 (Taxotere), iCTC control 40, 300 uM monolaurin) was 0, the “number of live iCTCs remaining” value (patient RP07 (Taxotere), iCTC control 200, 100 uM monolaurin) was 0 and the “number of live iCTCs remaining” value (patient RP07 (Taxotere), iCTC control 200, 200 uM monolaurin) was 0. For the same compound, the “number of live iCTCs remaining” value (patient RP07 (Taxotere), iCTC control 200, 300 uM monolaurin) was 0, the “number of live iCTCs remaining” value (patient RP08 (Taxotere), iCTC control 60, 100 uM monolaurin) was 0 and the “number of live iCTCs remaining” value (patient RP08 (Taxotere), iCTC control 60, 200 uM monolaurin) was 0. The “number of live iCTCs remaining” value (patient RP08 (Taxotere), iCTC control 60, 300 uM monolaurin) was 0, the “number of live iCTCs remaining” value (patient RP09 (Taxotere), iCTC control 225, 100 uM monolaurin) was 0 and the “number of live iCTCs remaining” value (patient RP09 (Taxotere), iCTC control 225, 200 uM monolaurin) was 0. For the same compound, the “number of live iCTCs remaining” value (patient RP09 (Taxotere), iCTC control 225, 300 uM monolaurin) was 0, the “number of live iCTCs remaining” value (patient RP13 (Taxotere), iCTC control 75, 100 uM monolaurin) was 0 and the “number of live iCTCs remaining” value (patient RP13 (Taxotere), iCTC control 75, 200 uM monolaurin) was 0. For the same compound, the “number of live iCTCs remaining” value (patient RP13 (Taxotere), iCTC control 75, 300 uM monolaurin) was 0, the “number of live iCTCs remaining” value (patient RP15 (Taxotere), iCTC control 50, 100 uM monolaurin) was 20 and the “number of live iCTCs remaining” value (patient RP15 (Taxotere), iCTC control 50, 200 uM monolaurin) was 10. For the same compound, the “number of live iCTCs remaining” value (patient RP15 (Taxotere), iCTC control 50, 300 uM monolaurin) was 0, the “number of live iCTCs remaining” value (patient RP19 (Taxotere), iCTC control 425, 100 uM monolaurin) was 50 and the “number of live iCTCs remaining” value (patient RP19 (Taxotere), iCTC control 425, 200 uM monolaurin) was 50. For the same compound, the “number of live iCTCs remaining” value (patient RP19 (Taxotere), iCTC control 425, 300 uM monolaurin) was 0, the “number of live iCTCs remaining” value (patient RP20 (Taxotere), iCTC control 50, 100 uM monolaurin) was 20 and the “number of live iCTCs remaining” value (patient RP20 (Taxotere), iCTC control 50, 200 uM monolaurin) was 10. The “number of live iCTCs remaining” value (patient RP20 (Taxotere), iCTC control 50, 300 uM monolaurin) was 5, the “number of live iCTCs remaining” value (patient RP212 (Taxotere), iCTC control 55, 100 uM monolaurin) was 30 and the “number of live iCTCs remaining” value (patient RP212 (Taxotere), iCTC control 55, 200 uM monolaurin) was 10. For the same compound, the “number of live iCTCs remaining” value (patient RP212 (Taxotere), iCTC control 55, 300 uM monolaurin) was 10, the “number of live iCTCs remaining” value (patient Rp05 (Taxotere), iCTC control 20, 100 uM monolaurin) was 15 and the “number of live iCTCs remaining” value (patient Rp05 (Taxotere), iCTC control 20, 200 uM monolaurin) was 0. The “number of live iCTCs remaining” value (patient Rp05 (Taxotere), iCTC control 20, 300 uM monolaurin) was 0.
